Measurements from patent publication EP4567115A1, “METHOD FOR PRODUCING RIBOSOME IN CELL-FREE PROTEIN SYNTHESIS SYSTEM” (priority 2022, dated 2024).

How the values were obtained:
Format in all cases: biochemical, E. coli
native ribosomes = assay: Femtoliter droplet assay, control cell extract with pT7_oSD_or1_LacZ reporter; details: 100 µM spectinomycin, 5 nM pT7_oSD_or1_LacZ reporter
Experimental: A mixed oil consisting of light mineral oil (Sigma-Aldrich Corporation, St. Louis, MO, USA), 4.5% sorbitan monooleate (Nacalai Tesque), and 0.5% Triton® X-100 (Nacalai Tesque) was provided. The solution after the second reaction and the mixed oil were mixed and a microtube (Maruemu Corporation, Osaka, Japan) was tapped 20 times to obtain an emulsion. The resulting emulsion was incubated at 37°C for 2 hours to 17 hours, and bright field and fluorescence images of the droplets were acquired over time using a confocal fluorescence microscope LSM700 (Carl Zeiss AG, Oberkochen, Germany). The 488 nm laser was focused using an oil-immersion objective lens (Plan-Apochromat 40x/1.4 Oil DIC M27, Carl Zeiss AG) and oil-immersion oil (ImmersolTM518F, Carl Zeiss AG).
Next, a control experiment was performed using a control cell extract containing only native ribosomes and a pT7_oSD_or1_LacZ reporter. The control cell extract was mixed with 5 nM pT7_oSD_or1_LacZ reporter. In this condition, no fluorescence from native ribosomes was detected in the bulk assay (Fig. 10d).

endogenous ribosome = assay: Spectinomycin concentration optimisation, sonicated S12 cell extract with pT7_wtSD_LacZ reporter; details: spectinomycin concentration 5 mM
Experimental: Next, the optimal concentration of spectinomycin was examined. BL21 Star™ (DE3) lacZ::frt was transformed with a plasmid containing rRNA with or without C1192U spectinomycin resistance (SpcR). These bacterial strains were cultured in the presence of 0.1 mM IPTG for 3 hours, and the sonicated S12 cell extract and pT7_wtSD_LacZ reporter were mixed at various spectinomycin concentrations. […] Therefore, in the following experiments, the spectinomycin concentration was set to 5 mM unless otherwise specified.

[1] = biological target: T1, 30S r-protein S12 K43T mutant (Escherichia coli, UniProt P0A7S3, K43T); assay: Bulk assay of in vitro produced SSU with S12 K43T mutant, spectinomycin and streptomycin in the second reaction; details: SSU only; gene encoding 30S r-protein S12 K43T mutant; in the presence of spectinomycin and streptomycin
T1 construct: made in house; host or cells: cell-free transcription/translation in E. coli S150 cell extract (first reaction)
Experimental: (§1) For the second reaction, a second reaction solution was prepared which contained 3.6 µL of the cell extract, an antibiotic (200 µM spectinomycin, 20 µg/mL streptomycin, 3 mM clindamycin, or 240 nM thiostrepton), 3 nM of the reporter plasmid, and 1 mM of IPTG. Note that when the reporter plasmid expressed LacZ, the second reaction solution included 66 µM of 5-chloromethylfluorescein di-β-D-galactopyranoside (CMFDG; Invitrogen, Waltham, MA, USA) as a substrate for LacZ. In the second reaction, 15 µL of the second reaction solution was added to and mixed with 15 µL of the solution after the first reaction, and the signal of the reporter was then measured. […] The signal of the reporter was quantified at λex = 485 nm and λem = 535 nm by using a fluorescence microplate reader, Fluoroskan Ascent FL™ (Thermo Fisher Scientific) or Infinite® 200 PRO (TECAN, Mannedorf, Switzerland).
The in vitro production of ribosomal SSU was specifically performed by the following procedure. […] The fluorescence of the reaction solution was measured by a bulk assay or a femtoliter droplet assay. In the bulk assay, the reporter signal was kinetically measured at λex = 485 nm and λem = 535 nm by using a Fluoroskan Ascent FL™ (Thermo Fisher Scientific) or Infinite® 200 PRO (TECAN) at 37°C for 120 minutes, 720 minutes, or 900 minutes. […]

[2] = biological target: T2, wild-type 30S r-protein S12 (Escherichia coli, UniProt P0A7S3); assay: Bulk assay of in vitro produced 70S ribosome with wild-type S12 (pT7_oSD_or1_LacZ reporter), with streptomycin; details: wild-type 30S r-protein S12 gene; in the presence of spectinomycin and streptomycin
T2 construct: made in house; host or cells: cell-free transcription/translation in E. coli S150 cell extract (first reaction)
Experimental: as §1
(§2) A gene encoding a K43T mutant of 30S r-protein S12, which mutant confers streptomycin resistance to ribosomes, was used to produce a 70S ribosome with streptomycin resistance. […] In the second reaction, the translational activity of the ribosomal SSU was then detected by a bulk assay using the pT7_oSD_or1_LacZ reporter in the presence of spectinomycin and in the presence or absence of streptomycin.

[3] = biological target: T3, K43T mutant of 30S r-protein S12 (Escherichia coli, UniProt P0A7S3, K43T); assay: Bulk assay of in vitro produced 70S ribosome with S12 K43T mutant (pT7_oSD_or1_LacZ reporter), with streptomycin; details: gene encoding K43T mutant of 30S r-protein S12; in the presence of spectinomycin and streptomycin
T3 construct: made in house; host or cells: cell-free transcription/translation in E. coli S150 cell extract (first reaction)
Experimental: as §1, §2

[4] = test system: native ribosome (Escherichia coli); assay: Bulk assay of native ribosome translational activity (LacZ reporter) with or without thiostrepton in the second reaction; details: in the presence of thiostrepton (120 nM, Fig. 5a); pT7PCONS_EpsA20_wtSD_lacZ reporter
Experimental: as §1
(§3) The in vitro production of ribosomal LSU was specifically performed by the following procedure. […] The fluorescence of the reaction solution was measured by a bulk assay in the same manner as in the case of the SSU.
(§4) Thiostrepton is known to inactivate an LSU by binding to 50S r-protein L11. […] In the second reaction, the translational activity of the ribosomal LSU was then detected by a bulk assay using the pT7PCONS_EpsA20_wtSD_lacZ reporter in the presence or absence of thiostrepton.

[5] = test system: LSU formed using 32 different LSU r-protein genes excluding r-protein L11 gene; assay: Bulk assay of in vitro formed LSU lacking r-protein L11 (LacZ reporter) in the presence of thiostrepton; details: in the presence of thiostrepton (120 nM, Fig. 5b); LSU formed without r-protein L11 gene
Experimental: as §1, §3, §4

CN[C@@H]1[C@H](O)[C@H](NC)[C@H]2O[C@@]3(O)C(=O)C[C@@H](C)O[C@H]3O[C@@H]2[C@H]1O [spectinomycin] was tested, and the “fluorescence derived from native ribosomes” value (native ribosomes) was “fluorescence derived from native ribosomes can be removed” and the “activity of the endogenous ribosome” value (endogenous ribosome) was “strongly suppressed”.
[H]/N=C(/N)N[C@H]1[C@H](O)[C@@H](O)[C@H](O[C@@H]2O[C@@H](C)[C@](O)(C=O)[C@H]2O[C@@H]2O[C@@H](CO)[C@H](O)[C@@H](O)[C@@H]2NC)[C@@H](N/C(N)=N\[H])[C@@H]1O [streptomycin] was tested, and the reporter signal [1] was “the reporter signal was not affected”, the “reporter signal (translational activity of the ribosomal SSU)” value [2] was “no signal was detected” and the “reporter signal (translational activity of the ribosomal SSU)” value [3] was “a signal was detected”.
With C=C(NC(=O)C(=C)NC(=O)c1csc(C2=N[C@@H]3c4csc(n4)[C@H]4NC(=O)c5csc(n5)[C@H]([C@](C)(O)[C@@H](C)O)NC(=O)[C@H]5CSC(=N5)/C(=C/C)NC(=O)[C@H]([C@@H](C)O)NC(=O)c5csc(n5)[C@]3(CC2)NC(=O)[C@H](C)NC(=O)C(=C)NC(=O)[C@H](C)NC(=O)[C@H]([C@@H](C)CC)N[C@@H]2C=Cc3c([C@H](C)O)cc(nc3[C@H]2O)C(=O)O[C@@H]4C)n1)C(N)=O [thiostrepton] the “signal of LSU (activity of the native ribosome)” value [4] was “the signal of LSU disappeared” and the LSU signal [5] was “An LSU signal was detected”.
